In patent US20240116951A1, “HETEROCYCLIC COMPOUNDS AND USES THEREOF” (Kumquat Biosciences Inc., priority 2022, published 2024):

Experiments:
Format in all cases: binding
KRAS WT = biological target: T1, KRAS WT (Homo sapiens, UniProt P01116); test: HTRF assay of wildtype K-Ras interaction with SOS1 (PPI-HTRF); conditions: HTRF, 5 nM KRAS WT; read-out: PPI-HTRF-5 nM KRAS WT
T1 construct: made in house; host or cells: E. coli, e.g. BL21 (DE3)
Procedure, shortened: (§1)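 Equilibrium binding between GST-K-Ras and His-tagged human SOS1 is measured by FRET from a europium anti-GST donor to an XL665 anti-His acceptor. Compounds are run in duplicate at 10, 2.5, 0.63, 0.16, 0.04 and 0.01 μM, and IC50 is calculated from the 665/620 nm ratio.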

KRAS G12S = biological target: T2, KRAS G12S (Homo sapiens, UniProt P01116, G12S); test: HTRF assay of K-Ras G12S interaction with SOS1 (PPI-HTRF); conditions: 5 nM KRAS G12S, read-out: PPI-HTRF-5 nM KRAS G12S
T2 construct: made in house; host or cells: E. coli, e.g. BL21 (DE3)
T2 sequence (P01116 1-188 isoform P01116-2 G12S): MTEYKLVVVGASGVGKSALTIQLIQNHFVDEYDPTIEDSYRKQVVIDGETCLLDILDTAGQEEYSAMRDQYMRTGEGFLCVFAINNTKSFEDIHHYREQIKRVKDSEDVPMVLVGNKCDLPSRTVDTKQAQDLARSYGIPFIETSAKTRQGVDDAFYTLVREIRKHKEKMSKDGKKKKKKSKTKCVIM
Procedure, shortened: as §1

KRAS G12D = biological target: T3, KRAS G12D (Homo sapiens, UniProt P01116, G12D); test: HTRF assay of K-Ras G12D interaction with SOS1 (PPI-HTRF); conditions: HTRF, 5 nM KRAS G12D; read-out: PPI-HTRF-5 nM KRAS G12D
T3 construct: made in house; host or cells: E. coli, e.g. BL21 (DE3)
T3 sequence (P01116 1-188 isoform P01116-2 G12D): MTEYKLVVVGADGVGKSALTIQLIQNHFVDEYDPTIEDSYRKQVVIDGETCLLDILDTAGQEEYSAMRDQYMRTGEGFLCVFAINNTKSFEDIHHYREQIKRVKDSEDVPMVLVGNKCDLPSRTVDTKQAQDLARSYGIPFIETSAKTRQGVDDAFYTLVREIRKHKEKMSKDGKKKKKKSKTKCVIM
Procedure, shortened: as §1

Measured: IC50

T1 sequence (P01116 1-188 isoform P01116-2): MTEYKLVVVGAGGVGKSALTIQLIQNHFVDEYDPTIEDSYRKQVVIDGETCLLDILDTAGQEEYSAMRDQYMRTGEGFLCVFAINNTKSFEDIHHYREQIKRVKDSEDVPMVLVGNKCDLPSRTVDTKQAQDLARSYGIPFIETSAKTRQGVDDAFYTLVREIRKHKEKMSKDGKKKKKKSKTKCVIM

N#Cc1c(N)sc2c(F)ccc(-c3c(Cl)cc4c(N5CC[C@@]6(CCN6C(=O)n6cnc(F)n6)C5)nc(OC[C@@]56CCCN5C[C@H](F)C6)nc4c3F)c12 (atropisomer, axis not shown; (aS)) [Compound 281, (R)-2-amino-4-(6-chloro-8-fluoro-4-((R)-1-(3-fluoro-1H-1,2,4-triazole-1-carbonyl)-1,6-diazaspiro[3.4]octan-6-yl)-2-(((2R,7aS)-2-fluorotetrahydro-H-pyrrolizin-7a(5H)-yl)methoxy)quinazolin-7-yl)-7-fluorobenzo[b]thiophene-3-carbonitrile]
< 5 µM: all assays above

Nc1nc2c(-c3c(F)c4nc(OC[C@@]56CCCN5C[C@H](F)C6)nc(N5CCC6(CCN6C(=O)n6cncn6)C5)c4c(=O)n3C3CC3)ccc(F)c2s1 (stereo partly drawn) [Compound 257, 4-(1-(1H-1,2,4-triazole-1-carbonyl)-1,6-diazaspiro[3.4]octan-6-yl)-7-(2-amino-7-fluorobenzo[d]thiazol-4-yl)-6-cyclopropyl-8-fluoro-2-(((2R,7aS)-2-fluorotetrahydro-1H-pyrrolizin-7a(5H)-yl)methoxy)pyrido[4,3-d]pyrimidin-5(6H)-one]
< 5 µM: all assays above

Cc1cc(N)nc(-c2c(Cl)cc3c(N4CCC5(CCN5C(=O)n5cncn5)C4)nc(OC[C@@]45CCCN4C[C@H](F)C5)nc3c2F)c1C(F)(F)F (stereo partly drawn) [Compound 286, (6-(7-(6-amino-4-methyl-3-(trifluoromethyl)pyridin-2-yl)-6-chloro-8-fluoro-2-(((2R,7aS)-2-fluorotetrahydro-1H-pyrrolizin-7a(5H)-yl)methoxy)quinazolin-4-yl)-1,6-diazaspiro[3.4]octan-1-yl)(1H-1,2,4-triazol-1-yl)methanone]
< 5 µM: all assays above

N#Cc1c(N)sc2c(F)ccc(-c3c(Cl)cc4c(N5CCC6(C5)NCC6(F)F)nc(OC[C@@]56CCCN5C[C@H](F)C6)nc4c3F)c12 (stereo partly drawn) [Compound 232, 2-amino-4-(6-chloro-4-(3,3-difluoro-1,6-diazaspiro[3.4]octan-6-yl)-8-fluoro-2-(((2R,7aS)-2-fluorotetrahydro-1H-pyrrolizin-7a(5H)-yl)methoxy)quinazolin-7-yl)-7-fluorobenzo[b]thiophene-3-carbonitrile]
< 5 µM: all assays above

N#Cc1c(N)sc2c(F)ccc(-c3c(Cl)cc4c(N5CC[C@]6(CCN6C(=O)n6cncn6)C5)nc(OC[C@@]56CCCN5C[C@H](F)C6)nc4c3F)c12 [Compound 305, 4-(4-((S)-1-(1H-1,2,4-triazole-1-carbonyl)-1,6-diazaspiro[3.4]octan-6-yl)-6-chloro-8-fluoro-2-(((2R,7aS)-2-fluorotetrahydro-1H-pyrrolizin-7a(5H)-yl)methoxy)quinazolin-7-yl)-2-amino-7-fluorobenzo[b]thiophene-3-carbonitrile]
< 5 µM: all assays above

N#Cc1c(N)sc2c(F)ccc(-c3c(Cl)cc4c(N5CCC6(CCN6C(=O)CCl)C5)nc(OC[C@@]56CCCN5C[C@H](F)C6)nc4c3F)c12 (stereo partly drawn) [Compound 294, 2-amino-4-(6-chloro-4-(1-(2-chloroacetyl)-1,6-diazaspiro[3.4]octan-6-yl)-8-fluoro-2-(((2R,7aS)-2-fluorotetrahydro-1H-pyrrolizin-7a(5H)-yl)methoxy)quinazolin-7-yl)-7-fluorobenzo[b]thiophene-3-carbonitrile]
< 5 µM: all assays above
